Laboratory results published in patent US20180312542A1, “ENDOSOMAL ESCAPE PEPTIDES” (priority 2015, published 2018).

Assays:
BSR.LNL.tdTomato cells [1] = test: Primary screen for cytosolic delivery of Cre recombinase (tdTomato, fluorescence image analysis); assay type: cell-based, hamster; conditions: for level of recombination in primary screen: 250 nM peptide-(+36 GFP)-Cre conjugate
Experimental: FIG. 2. Primary screen for cytosolic delivery of Cre recombinase in BSR.LNL.tdTomato cells. Initial screen of 20 peptide-(+36 GFP)-Cre conjugated proteins. Cytosolic Cre delivery results in recombination and tdTomato expression. The percentage of tdTomato positive cells was determined by fluorescence image analysis. […] Cells were treated with 250 nM protein for 4 hours in serum-free DMEM. Cells were washed and supplanted with full DMEM and incubated for 48 hours. Error bars represent the standard deviation of three independent biological replicates.
The ability of each peptide-(+36 GFP)-Cre recombinase fusion when added to culture media to effect recombination was assayed in BSR.LNL.tdTomato cells, a hamster kidney cell line derived from BHK-21 (FIG. 8). Because Cre recombinase must enter the cell, escape endosomes, enter the nucleus, and catalyze recombination to generate tdTomato fluorescence, this assay reflects the availability of active, non-endosomal recombinase enzyme that reaches the nucleus. […] See, e.g., Dijkstra at al. Biochimica et Biophysica Acta (BBA)-Molecular Cell Research 1984, 804, 58.
The reporter BSR.LNL.tdTomato cells were incubated with 250 nM of each peptide-(+36 GFP)-Cre protein in serum-free media.
BSR.LNL.tdTomato cells were plated at 10,000 cells per well in black 384-well plates (Aurora Biotechnologies). Cells were treated with Cre fusion proteins diluted in serum-free DMEM 24 hours after plating and incubated for 4 hours at 37° C. Following incubation, the cells were washed three times with PBS+20 U/mL heparin. The cells were incubated a further 48 h in serum-containing media. Cells were fixed in 3% paraformaldehyde and stained with Hoescht 33342 nuclear dye. Images were acquired on an ImageXpress Micro automated microscope (Molecular Devices) using a 4× objective (binning 2, gain 2), with laser- and image-based focusing (offset −130 μm, range ±50 μm, step 25 μm). Images were exposed for 10 ms in the DAPI channel (Hoechst) and 500 ms in the dsRed channel (tdTomato). Image analysis was performed using the cell-scoring module of MetaXpress software (Molecular Devices). All nuclei were detected with a minimum width of 1 pixel, maximum width of 3 pixels, and an intensity of 200 gray levels above background. Positive cells were evaluated for uniform signal in the dsRed channel (minimum width of 5 pixels, maximum width of 30 pixels, intensity >200 gray levels above background, 10 μm minimum stained area). In total, nine images were captured and analyzed per well, and 16 wells were treated with the same fusion protein. The primary screen was completed in biological triplicate.

[2] = system: cochlear hair cells and supporting cells of Cre reporter transgenic mice; test: In vivo protein delivery of Cre recombinase into mouse neonatal cochleas
Experimental: FIGS. 6A-6C. In vivo protein delivery of Cre recombinase into mouse neonatal cochleas. 0.4 μL of 50 μM+36 GFP-Cre or aurein 1.2-+36 GFP-Cre were injected into the scala media. (FIG. 6A) Five days after injection, cochlea were harvested. Inner hair cells (IHC), outer hair cells (OHC) and supporting cells in the sensory epithelium (SE) were imaged for the presence of tdTomato, which is only expressed following Cre-mediated recombination. Hair cells were labeled with antibodies against the hair-cell marker Myo7a. (FIG. 6B) To evaluate cytotoxicity, the number of outer hair cells and inner hair cells were measured by counting DAPI-stained cells. (FIG. 6C) The percentage of tdTomato positive cells, reflecting successful delivery of functional Cre recombinase, was determined by fluorescence imaging.
To evaluate the ability of aurein 1.2 to increase the efficacy of cationic protein delivery in vivo, proteins were delivered to the inner ear of Cre reporter transgenic mice that express tdTomato upon Cre-mediated recombination. This animal model was chosen due to its confined injection volume, the presence of well-characterized cell types, and the existence of genetic deafness models that would facilitate future studies of protein delivery to treat hearing loss.
Anesthetized postnatal day 2 (P2) mice were injected with 0.4 μL of 50 μM+36 GFP-Cre or aurein 1.2-+36 GFP-Cre solutions in the scala media to access the cochlear cells. Five days after injection, the cochleas were harvested for immunolabeling of inner ear cell markers and imaging for tdTomato florescence (FIG. 6A). Both the hair cells (Myo7a+) and supporting cells (Myo7a−) were evaluated for td Tomato signal. The total number of hair cells and supporting cells (by DAPI labeling) in the sensory epithelium (SE) was used to determine the relative toxicity of aurein 1.2-+36 GFP-Cre to the baseline treatment of +36 GFP-Cre ([…]).
P1-2 Gt(ROSA)26Sor^tm14(CAG-tdTomato)Hze mice were used for aurein 1.2-+36-GFP-Cre and +36-GFP-Cre injection. The Rosa26-tdTomato mice were from the Jackson Laboratory. Animals were used under protocols approved by the Massachusetts Eye & Ear Infirmary IACUC committee. Mice were anesthetized by hypothermia on ice. Cochleostomies were performed by making an incision behind the ear to expose the cochlea. Glass micropipettes held by a micromanipulator were used to deliver the complex into the scala media, which allows access to inner ear hair cells. The total delivery volume for every injection was 0.4 μL per cochlea and the release was controlled by a micromanipulator at the speed of 69 nL/min.
5 days after injection, the mice were sacrificed and cochlea were harvested by standard protocols. See, e.g., Sage et al. Science 2005, 307, 1114. For immunohistochemistry, antibodies against hair-cell markers (Myo7a) and supporting cells (Sox2) were used following a previously described protocol. To quantify the number of tdTomato positive cells after aurein 1.2-+36-GFP-Cre and +36-GFP-Cre, we counted the total number of inner and outer hair cells in a region spanning 100 μm in the apex, middle, and base turn of the cochlea.

BSR.LNL.tdTomato cells [3] = test: Delivery efficiency of aurein 1.2 in trans with +36 GFP-Cre (Cre recombination, flow cytometry); assay type: cell-based, hamster; conditions: 125-500 nM +36 GFP-Cre mixed with aurein 1.2 (1-100 μM) or aurein 1.2-+36 GFP (125-500 nM)
Experimental: Determining the delivery efficiency of aurein 1.2 in trans with +36 GFP-Cre. 125 nM, 250 nM, or 500 nM+36 GFP-Cre was mixed with either aurein 1.2-+36 GFP (125 nM, 250 nM, 500 nM) or with aurein 1.2 (1 μM, 10 μM, 100 μM), then assayed for Cre-mediated recombination as measured by tdTomato signal during flow cytometry. […] The expressed fusion aurein 1.2-+36 GFP-Cre protein at 125 nM, 250 nM, or 500 nM was used as the positive control.
To test this possibility, we assayed functional Cre recombinase delivery of +36 GFP-Cre mixed with aurein 1.2, or mixed with aurein 1.2-+36 GFP fusion protein lacking Cre at various concentrations (FIG. 9).

BSR.LNL.tdTomato cells [4] = test: Cre delivery assay of expressed fusion proteins (tdTomato, flow cytometry); assay type: cell-based, hamster; conditions: for overall recombination efficiency versus aurein 1.2: variant fused to +36 GFP-Cre, 250 nM
Experimental: FIGS. 3A-3B. Efficacy and toxicity of recombinant expression fusions of aurein 1.2 (“E”) and citropin 1.3 (“U”). […] The percentage of tdTomato positive cells was determined by flow cytometry. Protein fusions were delivered at 125 nM, 250 nM, 500 nM, and 1 μM. (FIG. 3B) Toxicity of aurein 1.2 and citropin 1.3 as determined by CellTiterGlo (Promega) assay. Protein fusions were delivered at 125 nM, 250 nM, 500 nM, and 1 μM. […] Cells were treated with 250 nM protein for 4 hours in serum-free media. Cells were washed and supplanted with full DMEM and incubated for 48 hours. Error bars represent the standard deviation of three independent biological replicates.
(§1) FIGS. 4A-4B. Activity and cytotoxicity of aurein 1.2 variants fused to +36 GFP-Cre. (FIG. 4A) The percentage of tdTomato positive cells was determined by flow cytometry. (FIG. 4B) Toxicity as determined by CellTiterGlo (Promega) assay. […] Cells were treated with 250 nM protein for 4 hours in serum-free DMEM. Cells were washed and supplanted with full DMEM and incubated for 48 hours.
Both aurein 1.2-+36 GFP-Cre and citropin 1.3-+36 GFP-Cre were cloned, expressed, and purified as fusion proteins.
To identify the residues involved in enhancing non-endosomal protein delivery, an alanine scan of the 13 amino acid positions of aurein 1.2 was performed by cloning, expressing, and purifying each alanine mutant of aurein 1.2-+36 GFP-Cre. The resulting fusion proteins were assayed in BSR.LNL.tdTomato reporter cells as described above (Table 2). […] In total, 19 mutants of aurein 1.2 were generated and tested using the Cre recombination assay.
(§2) Uptake and delivery assays for Cre fusion proteins were performed as previously described. Briefly, proteins were diluted in serum-free DMEM and incubated on the cells in 48-well plates for 4 hours at 37° C. Following incubation, the cells were washed three times with PBS+20 U/mL heparin. The cells were incubated a further 48 hours in serum-containing media prior to trypsinization and analysis by flow cytometry. All flow cytometry were carried out on a BD Fortessa flow cytometer (Becton-Dickinson) using 530/30 nm and 610/20 nm filter sets. Toxicity for aurein 1.2 and citropin 1.3 validation assays was determined using CellTiterGlo assay (Promega) in 96-well plates following manufacturer protocol. Toxicity for alanine scan mutational analysis was determined with LIVE/DEAD fixable far-red dead cell stain (Life Technologies) with 635 nm laser and 670/30 nm filter.

BSR.LNL.tdTomato cells [5] = test: Toxicity of aurein 1.2 variants fused to +36 GFP-Cre; assay type: cell-based, hamster; conditions: variant fused to +36 GFP-Cre, 250 nM
Experimental: as §1
To identify the residues involved in enhancing non-endosomal protein delivery, an alanine scan of the 13 amino acid positions of aurein 1.2 was performed by cloning, expressing, and purifying each alanine mutant of aurein 1.2-+36 GFP-Cre. The resulting fusion proteins were assayed in BSR.LNL.tdTomato reporter cells as described above (Table 2). Seven positions were moderately to highly intolerant of alanine substitution. Six positions retained >70% of the activity of unmutated aurein 1.2-+36 GFP-Cre (FIG. 4A). […]
Uptake and delivery assays for Cre fusion proteins were performed as previously described. […] Toxicity for aurein 1.2 and citropin 1.3 validation assays was determined using CellTiterGlo assay (Promega) in 96-well plates following manufacturer protocol. Toxicity for alanine scan mutational analysis was determined with LIVE/DEAD fixable far-red dead cell stain (Life Technologies) with 635 nm laser and 670/30 nm filter.

BSR.LNL.tdTomato cells [6] = test: ATP-dependent cell viability assay (CellTiterGlo) 48 h after treatment; assay type: cell-based, hamster; conditions: for viable cells: 1 μM treatment
Experimental: FIGS. 3A-3B. Efficacy and toxicity of recombinant expression fusions of aurein 1.2 (“E”) and citropin 1.3 (“U”). (FIG. 3A) Cytosolic Cre delivery results in recombination and tdTomato expression. The percentage of tdTomato positive cells was determined by flow cytometry. Protein fusions were delivered at 125 nM, 250 nM, 500 nM, and 1 μM. (FIG. 3B) Toxicity of aurein 1.2 and citropin 1.3 as determined by CellTiterGlo (Promega) assay. Protein fusions were delivered at 125 nM, 250 nM, 500 nM, and 1 μM. […] Cells were treated with 250 nM protein for 4 hours in serum-free media. Cells were washed and supplanted with full DMEM and incubated for 48 hours. Error bars represent the standard deviation of three independent biological replicates.
Next, the toxicity of each fusion protein was evaluated at a range of concentrations (125 nM to 1 μM) using an ATP-dependent cell viability assay at 48 h after treatment. […] Applying 1 μM treatments decreased cell viability to 70% and 66%, respectively (FIG. 3B). In light of its activity and low cytotoxicity at 250 nM, the ability of aurein 1.2 to enhance cytosolic protein delivery was characterized in depth.
as §2

## GLFDIIKKIAESF [aurein 1.2]
BSR.LNL.tdTomato cells [1]
  level of recombination in primary screen: highest level of recombination
[2]; live mice, inner ear
  potency of Cre delivery into cochlear hair cells when fused with aurein 1.2 versus absence of the peptide: > 20 fold
BSR.LNL.tdTomato cells [3]
  effect on functional delivery of +36 GFP-Cre when added in trans: did not affect

## GLFDIIKRIAESF [K8R, aurein 1.2 variant, expressed as recombinant fusion protein with +36 GFP-Cre]
BSR.LNL.tdTomato cells [4]
  overall recombination efficiency versus aurein 1.2: potentially improved
BSR.LNL.tdTomato cells [5]
  toxicity versus aurein 1.2: increased toxicity

## GLFDIIKKIAEAF [S12A, aurein 1.2 variant, expressed as recombinant fusion protein with +36 GFP-Cre]
BSR.LNL.tdTomato cells [4]
  overall recombination efficiency versus aurein 1.2: potentially improved
BSR.LNL.tdTomato cells [5]
  toxicity versus aurein 1.2: increased toxicity

## CCN(CC)CCCC(C)Nc1ccnc2cc(Cl)ccc12 (centres unmarked) [chloroquine, reference compound]
BSR.LNL.tdTomato cells [1]; 250 nM +36 GFP-Cre incubated with 100 μM chloroquine (positive control)
  recombined cells: 48%

## +36 GFP-Cre: superpositively charged GFP fused to Cre recombinase, SEQ ID NO: 76; no-peptide control [reference compound]
BSR.LNL.tdTomato cells [1]; 250 nM protein, 4 h serum-free media, then 48 h, sortase-conjugated peptide or no peptide
  cells expressing tdTomato (recombined cells): 4.5%
BSR.LNL.tdTomato cells [6]
  viable cells: 85%
[2]; 0.4 μL of 50 μM, 5 days
  recombination in middle or base cochlear hair cells or cochlear supporting cells: not in the middle or base of the cochlear hair cells or any cochlear supporting cells
[2]; apex, 0.4 μL of 50 μM, 5 days
  Cre-mediated recombination, inner hair cells (IHC): 4.4%

## GLFDIIKKVASVIGGL [citropin 1.3]
BSR.LNL.tdTomato cells [1]
  level of recombination in primary screen: moderate level of recombination

## citropin 1.3-+36 GFP-Cre: fusion protein of citropin 1.3, +36 GFP and Cre recombinase, SEQ ID NO: 78
BSR.LNL.tdTomato cells [4]; 250 nM expressed fusion protein
  recombination signal above that of +36 GFP-Cre: did not induce any enhanced Cre delivery
BSR.LNL.tdTomato cells [4]; 1 μM expressed fusion protein
  recombination levels higher than that of +36 GFP-Cre alone: 3.0 fold
BSR.LNL.tdTomato cells [6]; 250 nM recombinant fusion
  viability: 84%
BSR.LNL.tdTomato cells [6]
  viable cells: 66%
